Reference: PubChem BioAssay AID330 (DTP/NCI, 2004)
“And” between values parts separate entries of the source, which are not always exact repeats. Equal values may be shown once. Toxic doses and inconclusive results are not listed. Peptide text beside a SMILES is read from it.

System: P388 leukemia ip, CD2F1 mice, survival T/C
Test: NCI In Vivo Anticancer Drug Screen. Data for tumor model P388 Leukemia (intraperitoneal) in CD2F1 (CDF1) mice
Settings: endpoint: median survival time, higher = longer survival
Summary of the method: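 Mice carrying the transplanted tumor received test compound or vehicle. Survival was recorded in each group, and the value is the treated-group measurement divided by that of the vehicle-treated control group.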

[1] = dose: 50.0 mg/kg/injection, schedule: Q01DX009 (ip), vehicle: Klucel (hydroxypropylcellulose) (HPC)
[2] = dose: 50.0 mg/kg/injection, schedule: Q01DX009 (ip), vehicle: saline
[3] = dose: 50.0 mg/kg/injection, schedule: Q01DX005 (ip), vehicle: Klucel (hydroxypropylcellulose) (HPC)
[4] = dose: 100.0 mg/kg/injection, schedule: Q01DX005 (ip), vehicle: Klucel (hydroxypropylcellulose) (HPC)
[5] = dose: 200.0 mg/kg/injection, schedule: Q01DX005 (ip), vehicle: Klucel (hydroxypropylcellulose) (HPC)
[6] = dose: 100.0 mg/kg/injection, schedule: Q01DX009 (ip), vehicle: saline
[7] = dose: 200.0 mg/kg/injection, schedule: Q01DX009 (ip), vehicle: saline
[8] = dose: 100.0 mg/kg/injection, schedule: Q04DX002 (ip), vehicle: saline with Tween-80
[9] = dose: 200.0 mg/kg/injection, schedule: Q04DX002 (ip), vehicle: saline with Tween-80
[10] = dose: 50.0 mg/kg/injection, schedule: Q01DX005 (ip), vehicle: saline with Tween-80
[11] = dose: 100.0 mg/kg/injection, schedule: Q01DX005 (ip), vehicle: saline with Tween-80
[12] = dose: 200.0 mg/kg/injection, schedule: Q01DX005 (ip), vehicle: saline with Tween-80
[13] = dose: 50.0 mg/kg/injection, schedule: Q04DX002 (ip), vehicle: saline with Tween-80
[14] = dose: 60.0 mg/kg/injection, schedule: Q01DX005 (ip), vehicle: saline with Tween-80
[15] = dose: 120.0 mg/kg/injection, schedule: Q01DX005 (ip), vehicle: saline with Tween-80
[16] = dose: 240.0 mg/kg/injection, schedule: Q01DX005 (ip), vehicle: saline with Tween-80
[17] = dose: 12.5 mg/kg/injection, schedule: Q01DX005 (ip), vehicle: saline with Tween-80
[18] = dose: 25.0 mg/kg/injection, schedule: Q01DX005 (ip), vehicle: saline with Tween-80

For `COc1cccc2c1C(=O)c1c(O)c3c(c(O)c1C2=O)C[C@@](O)(C(=O)CO)C[C@@H]3OC1CC(NC=O)C(O)C(C)O1` (stereo partly drawn), the T/C (dose: 1.56 mg/kg/injection, schedule: Q01DX009 (ip), vehicle: Klucel (hydroxypropylcellulose) (HPC)) was 95 % of control, the T/C (dose: 7.4 mg/kg/injection, schedule: Q01DX009 (ip), vehicle: other) was 163 % of control and the T/C (dose: 11.0 mg/kg/injection, schedule: Q01DX009 (ip), vehicle: other) was 157 % of control. For the same compound, the T/C (dose: 16.5 mg/kg/injection, schedule: Q01DX009 (ip), vehicle: other) was 163 % of control, the T/C (dose: 25.0 mg/kg/injection, schedule: Q01DX009 (ip), vehicle: other) was 192 % of control and the T/C (dose: 37.5 mg/kg/injection, schedule: Q01DX009 (ip), vehicle: other) was 201 % of control. For the same compound, the T/C [1] was 121 % of control.
In the case of `CC(C)CC(N)C(=O)NC(CCCN=C(N)N)C(=O)NC(CCCN=C(N)N)C(=O)NC(C)C(=O)NC(CO)C(=O)NC(CC(C)C)C(=O)NCC(=O)O` (stereo not drawn) (H-LRRASLG-OH; configuration not given here), the T/C (dose: 2.25 mg/kg/injection, schedule: Q01DX009 (ip), vehicle: Klucel (hydroxypropylcellulose) (HPC)) is reported as 103 % of control, the T/C (dose: 4.5 mg/kg/injection, schedule: Q01DX009 (ip), vehicle: Klucel (hydroxypropylcellulose) (HPC)) is reported as 100 % of control and the T/C (dose: 9.0 mg/kg/injection, schedule: Q01DX009 (ip), vehicle: Klucel (hydroxypropylcellulose) (HPC)) is reported as 100 % of control. The T/C (dose: 18.0 mg/kg/injection, schedule: Q01DX009 (ip), vehicle: Klucel (hydroxypropylcellulose) (HPC)) was 106 % of control and the T/C (dose: 36.0 mg/kg/injection, schedule: Q01DX009 (ip), vehicle: Klucel (hydroxypropylcellulose) (HPC)) was 106 % of control.
For `c1coc(CNC2=NCCCCC2)c1`, the T/C (dose: 12.5 mg/kg/injection, schedule: Q01DX009 (ip), vehicle: saline) was 108 % of control, the T/C (dose: 25.0 mg/kg/injection, schedule: Q01DX009 (ip), vehicle: saline) was 108 % of control and the T/C [2] was 102 % of control.
For `Nc1ncnc2c1ncn2C1CC(O)C(COC(c2ccccc2)(c2ccccc2)c2ccccc2)O1` (stereo not drawn), the T/C [3] was 95 % of control, the T/C [4] was 91 % of control and the T/C [5] was 86 % of control.
In the case of `O=S(=O)(Cl)C(F)(F)C(F)(F)F`, the T/C [2] is reported as 100 % of control, the T/C [6] is reported as 110 % of control and the T/C [7] is reported as 103 % of control.
In the case of `CN1C(=O)Cn2c(nn(CCN3CCCC3)c(=O)c2=O)-c2cc(Cl)ccc21`, the T/C [2] is reported as 103 % of control, the T/C [6] is reported as 105 % of control and the T/C [7] is reported as 103 % of control.
In the case of `c1ccc2c(c1)-c1nc-2nc2[nH]c(nc3nc(nc4[nH]c(n1)c1ccccc41)-c1ccccc1-3)c1cc3c4nc5nc(nc6[nH]c(nc7nc(nc([nH]4)c3cc21)-c1ccccc1-7)c1ccccc61)-c1ccccc1-5`, the T/C (dose: 60.0 mg/kg/injection, schedule: Q01DX005 (ip), vehicle: Klucel (hydroxypropylcellulose) (HPC)) is reported as 106 % of control, the T/C (dose: 120.0 mg/kg/injection, schedule: Q01DX005 (ip), vehicle: Klucel (hydroxypropylcellulose) (HPC)) is reported as 100 % of control and the T/C (dose: 240.0 mg/kg/injection, schedule: Q01DX005 (ip), vehicle: Klucel (hydroxypropylcellulose) (HPC)) is reported as 97 % of control.
In the case of `CC1c2ccccc2OS(=O)N1C` (stereo not drawn), the T/C [1] is reported as 104 % of control, the T/C (dose: 100.0 mg/kg/injection, schedule: Q01DX009 (ip), vehicle: Klucel (hydroxypropylcellulose) (HPC)) is reported as 110 % of control and the T/C (dose: 200.0 mg/kg/injection, schedule: Q01DX009 (ip), vehicle: Klucel (hydroxypropylcellulose) (HPC)) is reported as 111 % of control.
In the case of `O=C(N/C(=C\c1nc2ccccc2s1)c1ccccc1O)c1ccccc1`, the T/C [8] is reported as 104 % of control, the T/C [9] is reported as 99 % of control and the T/C (dose: 400.0 mg/kg/injection, schedule: Q04DX002 (ip), vehicle: saline with Tween-80) is reported as 103 % of control.
`O=C(O)c1ccccc1NCc1ccco1` was tested, and the T/C [10] was 91 % of control, the T/C [11] was 96 % of control and the T/C [12] was 89 % of control.
`CCOC1OCN(C2CCCCC2)CC1(C)C` (stereo not drawn) was tested, and the T/C (dose: 50.0 mg/kg/injection, schedule: Q01DX009 (ip), vehicle: saline with Tween-80) was 109 % of control and the T/C (dose: 200.0 mg/kg/injection, schedule: Q01DX009 (ip), vehicle: saline with Tween-80) was 110 % of control.
`[NH-]C(C[S-])C(=O)O.[NH-]C(C[S-])C(=O)O.[O]=[Mo]1[O][Mo](=[O])[O]1` (stereo not drawn) was tested, and the T/C [2] was 99 % of control, the T/C [6] was 90 % of control and the T/C [7] was 104 % of control.
In the case of `OCCNc1cc(Cl)c(N=C2N(Cc3ccccc3)CCN2Cc2ccccc2)c(Cl)c1`, the T/C [3] is reported as 102 % of control, the T/C [4] is reported as 97 % of control and the T/C [5] is reported as 100 % of control.
For `C=C1C(=O)O[C@@H]2C(=O)[C@@H](C)[C@@H]3C=CC(=O)[C@@]3(C)[C@@H](OC(=O)/C(C)=C\C)[C@H]12`, the T/C (dose: 2.0 mg/kg/injection, schedule: Q01DX009 (ip), vehicle: saline + alcohol) was 107 % of control, the T/C (dose: 4.0 mg/kg/injection, schedule: Q01DX009 (ip), vehicle: saline + alcohol) was 99 % of control and the T/C (dose: 8.0 mg/kg/injection, schedule: Q01DX009 (ip), vehicle: saline + alcohol) was 109 % of control and 123 % of control. The T/C (dose: 16.0 mg/kg/injection, schedule: Q01DX009 (ip), vehicle: saline + alcohol) was 116 % of control.
For `C/C(Cl)=C\C(=O)c1c(C)[nH]n(-c2ccccc2)c1=O`, the T/C [3] was 99 % of control and the T/C [4] was 111 % of control.
With `CSc1nc(-c2cccs2)cc(C(F)(F)F)n1` the T/C (dose: 50.0 mg/kg/injection, schedule: Q04DX003 (ip), vehicle: gum acacia) was 105 % of control, the T/C (dose: 100.0 mg/kg/injection, schedule: Q04DX003 (ip), vehicle: gum acacia) was 104 % of control and the T/C (dose: 200.0 mg/kg/injection, schedule: Q04DX003 (ip), vehicle: gum acacia) was 109 % of control. For the same compound, the T/C (dose: 400.0 mg/kg/injection, schedule: Q04DX003 (ip), vehicle: gum acacia) was 96 % of control.
With `COc1ccc(CS(=O)(=O)c2cnc(N3CCN(C)CC3)nc2N)cc1OC` the T/C (dose: 100.0 mg/kg/injection, schedule: Q01DX001 (ip), vehicle: saline) was 101 % of control, the T/C (dose: 200.0 mg/kg/injection, schedule: Q01DX001 (ip), vehicle: saline) was 98 % of control and the T/C (dose: 400.0 mg/kg/injection, schedule: Q01DX001 (ip), vehicle: saline) was 98 % of control.
`CN1CCC2CC1Cc1ccc(NS(C)(=O)=O)cc12` (stereo not drawn) was tested, and the T/C [10] was 98 % of control, the T/C [11] was 100 % of control and the T/C [12] was 91 % of control.
In the case of `COc1ccc(/C(=N/SC)N(C)C)cc1`, the T/C (dose: 3.75 mg/kg/injection, schedule: Q01DX005 (ip), vehicle: saline) is reported as 103 % of control, the T/C (dose: 7.5 mg/kg/injection, schedule: Q01DX005 (ip), vehicle: saline) is reported as 111 % of control and the T/C (dose: 15.0 mg/kg/injection, schedule: Q01DX005 (ip), vehicle: saline) is reported as 104 % of control.
`Clc1ccc2c(ccc3cccnc32)n1` was tested, and the T/C [13] was 100 % of control, the T/C [8] was 97 % of control and the T/C [9] was 94 % of control.
In the case of `CNc1nc(N)nc(N)c1N1CCN(c2ccc(C(=O)NC(CCCC(=O)O)C(=O)O)cc2)CC1` (stereo not drawn), the T/C [14] is reported as 99 % of control, the T/C [15] is reported as 100 % of control and the T/C [16] is reported as 95 % of control.
In the case of `CC(=O)N(C)c1ccc(N=Nc2ccc3ncccc3c2)cc1`, the T/C [17] is reported as 102 % of control and the T/C [18] is reported as 100 % of control.
`CC(=O)OCCN1CCOC(O)(c2cccc(C(F)(F)F)c2)C1` (stereo not drawn) was tested, and the T/C [14] was 115 % of control, the T/C [15] was 108 % of control and the T/C [16] was 113 % of control.
With `CCC/C=C(/C=N/Nc1ccc([N+](=O)[O-])cc1[N+](=O)[O-])CC` the T/C [17] was 97 % of control, the T/C [18] was 109 % of control and the T/C [10] was 91 % of control and 95 % of control.
For `COc1ccc(NC(=O)C2C(=O)N(c3ccc(OC)cc3)C(=O)/C2=N/N=C(N)N)cc1` (stereo not drawn), the T/C (dose: 25.0 mg/kg/injection, schedule: Q04DX002 (ip), vehicle: saline with Tween-80) was 99 % of control, the T/C [13] was 101 % of control and the T/C [8] was 98 % of control and 101 % of control.
`Cc1ccsc1S(N)(=O)=O` was tested, and the T/C (dose: 12.5 mg/kg/injection, schedule: Q01DX005 (ip), vehicle: Klucel (hydroxypropylcellulose) (HPC)) was 95 % of control, the T/C (dose: 25.0 mg/kg/injection, schedule: Q01DX005 (ip), vehicle: Klucel (hydroxypropylcellulose) (HPC)) was 98 % of control and the T/C [3] was 106 % of control and 107 % of control. For the same compound, the T/C [4] was 113 % of control and the T/C [5] was 113 % of control.
`O=C/C=C/N=c1ccn(O)cc1` was tested, and the T/C (dose: 60.0 mg/kg/injection, schedule: Q01DX005 (ip), vehicle: saline) was 105 % of control, the T/C (dose: 120.0 mg/kg/injection, schedule: Q01DX005 (ip), vehicle: saline) was 100 % of control and the T/C (dose: 240.0 mg/kg/injection, schedule: Q01DX005 (ip), vehicle: saline) was 109 % of control.
